Results as given in patent US8609409B2, “Methods and compositions for cell culture platform” (Clemson University, priority 2009, dated 2013).
Entries after “also recorded” stand apart in the source; their conditions may differ. Where no end group is shown, it is not given here.

Columns and labels:
in vitro cell cultures = test: safety and cytotoxic profile of genipin; type: cell-based
Source text: Chitosan and gelatin are two naturally occurring polymers. Chitosan is a polysaccharide formed by cross linkage of multiple monosaccharide units. It has active acetyl groups available for cross linkage. At acidic pH, chitosan is able to undergo polymerization. Gelatin is a peptide polymer and chemically derived from denatured collagen. […] Chitosan and gelatin co-polymer can be created by mixing chitosan with gelatin using a standard and well known procedure that involves creating acidic pH for chitosan polymerization followed by mixing with heated and stirred gelatin solution. However there are two disadvantages of this approach—high osmolarity of the resultant solution (>500 mM) and acidic pH. There are also concerns for cytotoxicity to biological tissues at such high concentrations. These disadvantages render the use of this copolymer useless for clinical application, In the present invention, chitosan and gelatin were cross linked by two different approaches—the first was a covalent linkage using genipin followed by using ionic cross linkage using glycerol phosphate. Genipin is a plant derived cross linker and quite cheap. […] This concentration of genipin was added to chitosan and gelatin mixture. Genipin is able to covalently link both the saccharide and amine groups available in chitosan and gelatin, respectively. This creates a polysaccharide-peptide cross linkage. […]

[1] = test system: Human neural progenitor cells (hNPCs); test: hNPC attachment, morphology and proliferation on gold-coated cover slips; type: cell-based; conditions: for hNPC attachment: day 1; for state of attached hNPCs: day 10
Method: (§1) Human neural progenitor cells were obtained from Millipore (Billerica, Mass.). The stem cell is an immortalized neural progenitor cell line derived from the ventral mesencephalon region of human fetal brain and immortalized by retroviral transduction with the v-myc oncogene. In conventional culture, laminin (20 μg/mL) was used to coat tissue culture plastic-wares at least 2 h before hNPC seeding. Human NPCs were maintained in ReNcell Neural Stem Cell Medium (Millipore) with FGF-2 (20 ng/mL) and EGF (20 ng/mL). Human NPCs were incubated at 37° C. under 5% CO2 and used before passage 5 in this study. For cell adhesion assays, cells were removed from the plate using Accutase, aspirated in growth media, and seeded on peptide or laminin coated substrates at a density of 50, 000 cells/cm^2. For differentiation study, hNPCs were cultured with the medium without FGF-2 and EGF.
The lam-IKVAV and our synthesized peptide were conjugated to gold-coated cover slips. For gold-coating on glass surfaces, cover slips were first cleaned with ethanol by sonication for 30 min. Then gold was coated on the cover slips by a sputter coater. For peptide and laminin coating, the peptide (150 μg/mL or 100 μM) or laminin (20 μg/mL) solutions were applied on the cover slips for at least 2 h. Then the solutions were removed from the slips and washed with phosphate buffered saline (PBS) for three times. Atomic force microscope (AFM) was used to examine the 3D configuration of the peptides on the surface.
To determine whether peptide-functionalized surfaces can support cell attachment and long-term culture and proliferation, hNPCs were cultured in complete growth medium, which contains FGF-2 and EGF to maintain hNPCs in the undifferentiated state. Cells were incubated at 37° C. with media changed every other day as we routinely culture hNPCs in laminin coated substrates. At the day 1, 5, and 10, cells were assayed with CyQuant (Invitrogen). The cell number was generated through a standard curve.
(§2) Morphology of cells was examined by immunostaining of actin. Cells were fixed with 4% (w/v) paraformaldehyde, permeabilized with 0.5% Triton X-100 (t-octylphenoxyplyethoxy-ethanol), and stained with Alexa Fluor-543 Phalloidin for 30 min. The nuclei were counterstained with 1 μg/mL DAPI for 30 min. The cells were imaged using a Leica TCS SP5 laser scanning confocal microscope (Bannockburn, Ill.).

[2] = Rheological characterization of PEG hydrogels conjugated with peptides; type: physicochemical; conditions: 4-arm thiolated PEG 2% + PEGTA 2%, our peptide 10, 50, 100 μM; for start of gelation process (G′>G″): 37° C., lam-IKVAV 100 μM
Method: Rheometer (AR1000, TA Instruments) was used to measure hydrogel mechanical properties, such as storage modulus (G′) and loss modulus (G″), and gelation time^8. Briefly, the time sweep was performed to monitor the in situ gelation at 37° C., recording the temporal evolution of G′ and G″. Frequency sweep test was used to obtain information about the stability of hydrogel structures. The stress sweep was set up by holding the frequency 1 Hz constant while increasing the stress level from 1 to 10 Pa. […] Oscillatory stress sweep allowed determination of G′ of hydrogels.
(§3) The lam-IKVAV peptide and our synthesized peptide of different concentrations were conjugated to PEG hydrogels through addition reaction of peptide cys thiols onto the ends of a PEGTA crosslinker as described before^9. Briefly, peptides containing stock solutions (100 μM) were prepared in the PEGTA stock solution (2% w/w) and stirred for 2 h at room temperature. In the peptide-linker stock solutions, the molar ratio of peptides to PEGTA was 1:20. The reaction kinetics of conjugate addition of cys-containing IKVAV peptides to PEGTA was followed using 5,5′-dithio-bis(2-nitrobenzoic acid) (DTNB) reagent according to previous study^9. Additional PEGTA solutions with lower peptide concentrations of 50 and 10 μM were prepared by diluting the stock solution with peptide-free […] solution (peptide: PEGTA: 1:40 and 1:200, respectively). Then PEGTA solutions containing different concentrations of peptides were added to 4-arm thiolated PEG (2% w/w) solution and mixed thoroughly to form hydrogels.

[3] = test system: Human neurospheres (hNPCs); test: Human neurospheres cultured inside hydrogels conjugated with peptides; type: cell-based
Method: Neurospheres with uniform sizes were fabricated using a robotic fabrication system developed in our lab. Briefly, stamps with micronipple array were designed in SolidWorks and fabricated using ultra-precision lathe. The automatic neurospheres fabricator was built on a TT-C3-4040 robot (IAI Corporation, Shizuoka, Japan) with electric triggered gripper to pick up the stamp and pipette tip uptake and ejection actuator to handle liquid. Agarose solution (2% w/w) was prepared by built-in heating elements in the robot platform. The robot was programmed to first add agarose solution to culture dishes. Then the robot picked up the stamp with micronipple arrays on the bottom and pressed on the agarose solution at room temperature for 2 min. Then the highly uniform size microwells were formed in the agarose gel. Human NPC suspension was uptake by the robot and added to the culture well with microwell arrays. After 24 h of culture at 37° C. and 5% CO2, uniform sized neurospheres were formed for this study use. For 3D culture, human neurospheres with uniform size were mixed with hydrogel precursor solutions before hydrogel formation.
Viability of cells inside hydrogels was examined using LIVE/DEAD Viability Kit, which is a two color fluorescent assay based on differential permeability of live and dead cells and allows preservation of the distinctive staining pattern for a couple of hours after post-fixation with 4% (w/v) glutaraldehyde. Live cells were stained with green fluorescent SYTO 10; and dead cells with compromised cell membranes were stained with red fluorescent ethidium homodimer-2. […]
We quantified the cell migration by taking measurements of the distance between the edge of spheres and the cell bodies at their outer perimeters. FIG. 26 presents quantification of cell migration from neurospheres cultured inside hydrogels conjugated with lam-IKVAV of 100 μM and our novel IKVAV peptide of different concentrations of 0, 10, 50, and 100 μM at the day 3, 7, and 21. […]

[4] = test system: Human neural progenitor cells (hNPCs); test: hNPC differentiation on coated cover slips; type: cell-based; conditions: 2 weeks, media without FGF-2 and EGF
Method: as §1
The differentiation of hNPCs on the tested surfaces was assayed by immunocytochemistry. Human NPCs were cultured for 2 weeks with differentiation media without growth factors FGF-2 and EGF. The cells were fixed with 4% (w/v) paraformaldehyde, treated with 5% goat serum in PBS to block non-specific reactivity and incubated overnight at 4° C. with primary antibodies, such as β III tubulin and glial fibrillary acidic protein (GFAP). After washing with PBS three times, the samples were incubated with the secondary antibodies at room temperature for 3 h. Then the nuclei were counterstained with DAPI for 30 min. The samples were imaged using the same microscope as described before. At least 6 random fields per surface were analyzed for each group.

[5] = test system: Human neural progenitor cells (hNPCs); test: hNPCs cultured on the surface of hydrogels conjugated with peptides; type: cell-based; conditions: for hNPC attachment and proliferation on hydrogel surface: lam-IKVAV 100 μM, our peptide 10 and 100 μM
Method: as §3, §2
Human NPCs were cultured on the surface of hydrogels with maintain media for 7 days. Without any bioactive peptide, hNPCs could not attach on the surface of blank PEG hydrogels (FIG. 22B). The cells formed spheres by themselves at the day 3. […] These attached cells proliferated on the surface as the function of time (FIGS. 22C and 22D). […] There was no difference about the morphology of hNPCs between these two groups.

Molecule	concentration found to be safe (in vitro cell cultures) [µM]	attachment and proliferation compared with laminin coated surface [1]	hNPC morphology / spreading [1]	hNPC attachment [1]	state of attached hNPCs [1]	start of gelation process (G′>G″) [2] [min]	storage modulus G′ ([2]; at 2 h)	peptide density with maximum enhancement of cell migration ([3]; conjugated to PEG hydrogels) [µM]	distance of hNSCs migration from neurospheres ([3]; peptide 10 μM, day 3, 7 and 21) [fold]	effect on cell migration from neurospheres ([3]; peptide concentration higher than 10 μM)	cells differentiated into astrocytes (GFAP+) [4] [%]	cells differentiated into neurons (β III tubulin+) [4] [%]	cells differentiated into astrocytes (GFAP+) ([4]; listed as our short peptide)	hNPC morphology on hydrogel surface ([5]; day 7, 10 and 100 μM)	hNPC attachment and proliferation on hydrogel surface [5]	hNPC attachment and proliferation on hydrogel surface ([5]; listed as our short peptide)
COC(=O)C1=CO[C@@H](O)[C@@H]2C(CO)=CC[C@H]12 [genipin]	400															
Ac-Cys-Cys-Arg-Arg-Ile-Lys-Val-Ala-Val-Trp-Leu-Cys (Ac-CCRRIKVAVWLC-OH; cysteine pairing not given here) [our novel peptide]		no significant difference	spread more evenly	significantly much more cells attached compared to lam-IKVAV	totally confluent on the whole surface	40	about 600 Pa	10	2	inhibitory effects on cell migration	33	54	about 30%	displayed spreading cytoskeletons	improved hNPC attachment, spreading and proliferation	cells attached at the day 1
CSRARKQAASIKVAVSADR [lam-IKVAV, commercial laminin IKVAV peptide from American Peptide Company, reference compound]			preferred to aggregate together	very few cells attached	floated off the surface	30									aggregated together; also recorded: did not support any hNPC attachment	
laminin: mouse laminin, whole ECM protein used as coating (20 μg/mL) [reference compound]											74	11				
